*1 amine or outer side, *2 acyl side, *3 side chain or, on linkers, in order; H or OH if unused. Where a SMILES comes first, the peptide text is derived from it. Bridges are numbered along the chain shown (N, C = ends). [ ]: non-standard residue; d: D form. The star is where a group is joined. Phe(3-CF3) = N[C@@H](Cc1cccc(C(F)(F)F)c1)C(=O)O; Phe(4-COOH) = N[C@@H](Cc1ccc(C(=O)O)cc1)C(=O)O; Bip = N[C@@H](Cc1ccc(-c2ccccc2)cc1)C(=O)O; Phe(3-Cl) = N[C@@H](Cc1cccc(Cl)c1)C(=O)O; Phe(3-Me) = Cc1cccc(C[C@H](N)C(=O)O)c1; X6 = O=C(Cc1ccc(CN[*:1])cc1)[*:2]; Cha = N[C@@H](CC1CCCCC1)C(=O)O; Carboxymethyl = O=C(O)C*; NMeA = CN[C@@H](C)C(=O)O; Orn = NCCC[C@H](N)C(=O)O; Pra = C#CC[C@H](N)C(=O)O; Aun = NCCCCCCCCCCC(=O)O; Dab = NCC[C@H](N)C(=O)O; AEEA = NCCOCCOCC(=O)O; Ac3c = NC1(C(=O)O)CC1
These compounds were tested against T1, PD-1/PD-L1 interaction (PE-labeled human PD-L1-Ig binding to Jurkat cell line over-expressing human PD-1) (Homo sapiens, UniProt Q15116) (assay: Jurkat-PD-1 Cell Binding High-Content Screening Assay (CBA)). Conditions: Jurkat-hPD-1 cells, PE-labeled PD-L1-Ig 20 nM final; read-out: Jurkat HPD1 PDL1 IC50.
T1 construct: expressed in transfected cells; host or cells: Jurkat
T1 sequence (Q15116 25-288): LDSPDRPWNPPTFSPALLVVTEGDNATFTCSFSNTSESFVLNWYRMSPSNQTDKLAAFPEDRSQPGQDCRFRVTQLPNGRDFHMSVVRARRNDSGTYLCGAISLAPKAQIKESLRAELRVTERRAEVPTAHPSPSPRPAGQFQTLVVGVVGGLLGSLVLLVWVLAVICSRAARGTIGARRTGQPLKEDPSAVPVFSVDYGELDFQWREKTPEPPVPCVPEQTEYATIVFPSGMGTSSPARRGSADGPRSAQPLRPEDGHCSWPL
In short: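 High-content imaging read-out of PE-PD-L1-Ig binding (20 nM final, 1 h) to Jurkat-hPD-1 cells, after 2 h compound exposure at 37 °C in DMEM with 10% FCS. Nuclei counterstained with Hoechst 33342 after paraformaldehyde fixation.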
For `C#CC[C@H](NC(=O)[C@H](CCN)NC(=O)[C@@H]1CSCC(=O)N[C@@H]([C@@H](C)O)C(=O)N[C@@H](Cc2ccc(OCC(=O)O)cc2)C(=O)N[C@@H](CC(=O)O)C(=O)N[C@@H](Cc2cccc(C(F)(F)F)c2)C(=O)N[C@@H](Cc2ccc(C(=O)O)cc2)C(=O)N[C@@H](Cc2ccc(-c3ccccc3)cc2)C(=O)N[C@@H](Cc2ccc(OCC(=O)O)cc2)C(=O)N(C)[C@@H](C)C(=O)N[C@H](CC(C)C)C(=O)N[C@@H](CCN)C(=O)N[C@@H](CC2CCCCC2)C(=O)N[C@@H](C(C)C)C(=O)N[C@@H]([C@@H](C)O)C(=O)N1)C(=O)NCCCCCCCCCCC(=O)O` [Example 1238] ({CH2CO}-TY(Carboxymethyl)D[Phe(3-CF3)][Phe(4-COOH)][Bip]Y(Carboxymethyl)[NMeA][dL][Dab][Cha]VTC[Dab][Pra][Aun]-OH; thioether N-14), the IC50 was 14.9 nM.
For `C#CC[C@H](NC(=O)[C@H](CCN)NC(=O)[C@@H]1CSCC(=O)N[C@@H]([C@@H](C)O)C(=O)N[C@@H](Cc2ccc(OCC(=O)O)cc2)C(=O)N[C@@H](CC(=O)O)C(=O)N[C@@H](Cc2cccc(Cl)c2)C(=O)N[C@@H](Cc2ccc(C(=O)O)cc2)C(=O)N[C@@H](Cc2ccc(-c3ccccc3)cc2)C(=O)N[C@@H](Cc2ccc(OCC(=O)O)cc2)C(=O)N(C)[C@@H](C)C(=O)N[C@H](CC(C)C)C(=O)N[C@@H](CCN)C(=O)N[C@@H](CC2CCCCC2)C(=O)N[C@@H](C(C)C)C(=O)N[C@@H]([C@@H](C)O)C(=O)N1)C(=O)NCCCCCCCCCCC(=O)O` [Example 1239] ({CH2CO}-TY(Carboxymethyl)D[Phe(3-Cl)][Phe(4-COOH)][Bip]Y(Carboxymethyl)[NMeA][dL][Dab][Cha]VTC[Dab][Pra][Aun]-OH; thioether N-14), the IC50 was 10.5 nM.
`C#CC[C@H](NC(=O)[C@H](CCN)NC(=O)[C@@H]1CSCC(=O)N[C@@H]([C@@H](C)O)C(=O)N[C@@H](Cc2ccc(OCC(=O)O)cc2)C(=O)N[C@@H](CC(=O)O)C(=O)N[C@@H](Cc2cccc(C)c2)C(=O)N[C@@H](Cc2ccc(C(=O)O)cc2)C(=O)N[C@@H](Cc2ccc(-c3ccccc3)cc2)C(=O)N[C@@H](Cc2ccc(OCC(=O)O)cc2)C(=O)N(C)[C@@H](C)C(=O)N[C@H](CC(C)C)C(=O)N[C@@H](CCN)C(=O)N[C@@H](CC2CCCCC2)C(=O)N[C@@H](C(C)C)C(=O)N[C@@H]([C@@H](C)O)C(=O)N1)C(=O)NCCCCCCCCCCC(=O)O` [Example 1240] ({CH2CO}-TY(Carboxymethyl)D[Phe(3-Me)][Phe(4-COOH)][Bip]Y(Carboxymethyl)[NMeA][dL][Dab][Cha]VTC[Dab][Pra][Aun]-OH; thioether N-14) gave an IC50 of 20.7 nM.
Work on `Cc1cccc(C[C@@H]2NC(=O)[C@H](CC(=O)O)NC(=O)[C@H](Cc3ccc(OCC(=O)O)cc3)NC(=O)[C@H]([C@@H](C)O)NC(=O)CSC[C@@H](C(=O)N[C@@H](CCN)C(=O)N[C@@H](Cc3cn(CC(=O)NCCCNC(=O)c4cc(F)c(F)c(F)c4)nn3)C(=O)NCCCCCCCCCCC(=O)O)NC(=O)[C@H]([C@@H](C)O)NC(=O)[C@H](C(C)C)NC(=O)[C@H](CC3CCCCC3)NC(=O)[C@H](CCN)NC(=O)[C@@H](CC(C)C)NC(=O)[C@H](C)N(C)C(=O)[C@H](Cc3ccc(OCC(=O)O)cc3)NC(=O)[C@H](Cc3ccc(-c4ccccc4)cc3)NC(=O)[C@H](Cc3ccc(C(=O)O)cc3)NC2=O)c1` [Example 1241] yielded an IC50 of 23.3 nM.
Compound `CC(C)C[C@@H]1NC(=O)[C@H](Cc2c[nH]c3ccccc23)NC(=O)[C@H](CC(=O)O)NC(=O)[C@H](Cc2ccc(C(=O)O)cc2)NC(=O)[C@H](Cc2ccc(OCC(=O)O)cc2)NC(=O)CSC[C@@H](C(=O)N[C@@H](CCCN)C(=O)NCCOCCOCC(=O)NCCCCCCCCCCC(=O)O)NC(=O)[C@@H](CO)NC(=O)[C@H](C(C)C)NC(=O)[C@H](CC2CCCCC2)NC(=O)[C@H](CCN)NC(=O)[C@@H](CC(C)C)NC(=O)[C@H](C)N(C)C(=O)[C@H](C(C)C)NC(=O)[C@H](Cc2ccc(-c3ccccc3)cc2)NC1=O` [Example 1242] ({CH2CO}-Y(Carboxymethyl)[Phe(4-COOH)]DWL[Bip]V[NMeA][dL][Dab][Cha]V[dS]C[Orn][AEEA][Aun]-OH; thioether N-14) has an IC50 of 19.8 nM.
`CC(C)C[C@@H]1NC(=O)[C@H](Cc2c[nH]c3ccccc23)NC(=O)[C@H](CC(=O)O)NC(=O)[C@H](Cc2ccc(C(=O)O)cc2)NC(=O)[C@H](Cc2ccc(OCC(=O)O)cc2)NC(=O)CSC[C@@H](C(=O)N[C@@H](CCCN)C(=O)NCc2ccc(CC(=O)NCCCCCCCCCCC(=O)O)cc2)NC(=O)[C@H](CO)NC(=O)[C@H](C(C)C)NC(=O)[C@H](CC2CCCCC2)NC(=O)[C@H](CCN)NC(=O)[C@@H](CC(C)C)NC(=O)[C@H](C)N(C)C(=O)[C@H](C(C)C)NC(=O)[C@H](Cc2ccc(-c3ccccc3)cc2)NC1=O` [Example 1243] ({CH2CO}-Y(Carboxymethyl)[Phe(4-COOH)]DWL[Bip]V[NMeA][dL][Dab][Cha]VSC[Orn][X6][Aun]-OH; thioether N-14) gave an IC50 of 28 nM.
`CC(C)C[C@@H]1NC(=O)[C@H](Cc2c[nH]c3ccccc23)NC(=O)[C@H](CC(=O)O)NC(=O)[C@H](Cc2ccc(C(=O)O)cc2)NC(=O)[C@H](Cc2ccc(OCC(=O)O)cc2)NC(=O)CSC[C@@H](C(=O)N[C@@H](CCCCN)C(=O)NCc2ccc(CC(=O)NCCCCCCCCCCC(=O)O)cc2)NC(=O)[C@H](CO)NC(=O)[C@H](C(C)C)NC(=O)[C@H](CC2CCCCC2)NC(=O)[C@H](CCN)NC(=O)[C@@H](CC(C)C)NC(=O)[C@H](C)N(C)C(=O)[C@H](C(C)C)NC(=O)[C@H](Cc2ccc(-c3ccccc3)cc2)NC1=O` [Example 1245] ({CH2CO}-Y(Carboxymethyl)[Phe(4-COOH)]DWL[Bip]V[NMeA][dL][Dab][Cha]VSCK[X6][Aun]-OH; thioether N-14) gave an IC50 of 18.2 nM.
For `CC(C)C[C@@H]1NC(=O)[C@H](Cc2c[nH]c3ccccc23)NC(=O)[C@H](CC(=O)O)NC(=O)[C@H](Cc2ccc(C(=O)O)cc2)NC(=O)[C@H](Cc2ccc(OCC(=O)O)cc2)NC(=O)CSC[C@@H](C(=O)N[C@@H](CCCCN)C(=O)NCCOCCOCC(=O)NCCCCCCCCCCC(=O)O)NC(=O)[C@@H](CO)NC(=O)[C@H](C(C)C)NC(=O)[C@H](CC2CCCCC2)NC(=O)[C@H](CCN)NC(=O)[C@@H](CC(C)C)NC(=O)[C@H](C)N(C)C(=O)[C@H](C(C)C)NC(=O)[C@H](Cc2ccc(-c3ccccc3)cc2)NC1=O` [Example 1246] ({CH2CO}-Y(Carboxymethyl)[Phe(4-COOH)]DWL[Bip]V[NMeA][dL][Dab][Cha]V[dS]CK[AEEA][Aun]-OH; thioether N-14), the IC50 was 31.9 nM.
`CC(C)C[C@@H]1NC(=O)[C@H](Cc2c[nH]c3ccccc23)NC(=O)[C@H](CC(=O)O)NC(=O)[C@H](Cc2ccc(OCC(=O)O)cc2)NC(=O)[C@H](Cc2ccc(OCC(=O)O)cc2)NC(=O)CSC[C@@H](C(=O)NC2(C(=O)NCCOCCOCC(=O)NCCCCCCCCCCC(=O)O)CC2)NC(=O)[C@H](CCCNC(=N)N)NC(=O)[C@H](C(C)C)NC(=O)[C@H](CC2CCCCC2)NC(=O)[C@H](CCN)NC(=O)[C@@H](CC(C)C)NC(=O)[C@H](C)N(C)C(=O)[C@H](C(C)C)NC(=O)[C@H](Cc2ccc(-c3ccccc3)cc2)NC1=O` [Example 1247] ({CH2CO}-Y(Carboxymethyl)Y(Carboxymethyl)DWL[Bip]V[NMeA][dL][Dab][Cha]VRC[Ac3c][AEEA][Aun]-OH; thioether N-14) gave an IC50 of 4.1 nM.
